Assay results reported in ChEMBL document CHEMBL5291721, “A preclinical secondary pharmacology resource illuminates target-adverse drug reaction associations of marketed drugs” (Nat Commun, 2023).

Legend:
[1] = molecular target: T1, Muscarinic acetylcholine receptor M1 (Homo sapiens, UniProt P11229); assay type: functional, cell-based
T1 sequence (P11229 whole entry): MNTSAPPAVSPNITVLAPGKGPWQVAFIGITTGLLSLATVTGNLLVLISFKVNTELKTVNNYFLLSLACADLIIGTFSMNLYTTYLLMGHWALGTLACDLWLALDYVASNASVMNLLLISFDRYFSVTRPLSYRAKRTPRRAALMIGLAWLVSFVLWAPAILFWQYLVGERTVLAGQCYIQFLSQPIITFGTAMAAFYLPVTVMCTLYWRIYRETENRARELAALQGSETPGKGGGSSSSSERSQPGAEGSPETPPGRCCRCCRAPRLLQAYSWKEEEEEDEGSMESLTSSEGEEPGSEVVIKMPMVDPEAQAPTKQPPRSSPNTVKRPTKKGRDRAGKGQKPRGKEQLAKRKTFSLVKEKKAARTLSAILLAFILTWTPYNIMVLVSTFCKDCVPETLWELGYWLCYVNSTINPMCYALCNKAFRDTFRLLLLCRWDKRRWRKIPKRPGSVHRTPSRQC

[2] = molecular target: Vascular endothelial growth factor receptor 2 (Homo sapiens, UniProt P35968); assay type: functional
Chain of Vascular endothelial growth factor receptor 2 (P35968 whole entry): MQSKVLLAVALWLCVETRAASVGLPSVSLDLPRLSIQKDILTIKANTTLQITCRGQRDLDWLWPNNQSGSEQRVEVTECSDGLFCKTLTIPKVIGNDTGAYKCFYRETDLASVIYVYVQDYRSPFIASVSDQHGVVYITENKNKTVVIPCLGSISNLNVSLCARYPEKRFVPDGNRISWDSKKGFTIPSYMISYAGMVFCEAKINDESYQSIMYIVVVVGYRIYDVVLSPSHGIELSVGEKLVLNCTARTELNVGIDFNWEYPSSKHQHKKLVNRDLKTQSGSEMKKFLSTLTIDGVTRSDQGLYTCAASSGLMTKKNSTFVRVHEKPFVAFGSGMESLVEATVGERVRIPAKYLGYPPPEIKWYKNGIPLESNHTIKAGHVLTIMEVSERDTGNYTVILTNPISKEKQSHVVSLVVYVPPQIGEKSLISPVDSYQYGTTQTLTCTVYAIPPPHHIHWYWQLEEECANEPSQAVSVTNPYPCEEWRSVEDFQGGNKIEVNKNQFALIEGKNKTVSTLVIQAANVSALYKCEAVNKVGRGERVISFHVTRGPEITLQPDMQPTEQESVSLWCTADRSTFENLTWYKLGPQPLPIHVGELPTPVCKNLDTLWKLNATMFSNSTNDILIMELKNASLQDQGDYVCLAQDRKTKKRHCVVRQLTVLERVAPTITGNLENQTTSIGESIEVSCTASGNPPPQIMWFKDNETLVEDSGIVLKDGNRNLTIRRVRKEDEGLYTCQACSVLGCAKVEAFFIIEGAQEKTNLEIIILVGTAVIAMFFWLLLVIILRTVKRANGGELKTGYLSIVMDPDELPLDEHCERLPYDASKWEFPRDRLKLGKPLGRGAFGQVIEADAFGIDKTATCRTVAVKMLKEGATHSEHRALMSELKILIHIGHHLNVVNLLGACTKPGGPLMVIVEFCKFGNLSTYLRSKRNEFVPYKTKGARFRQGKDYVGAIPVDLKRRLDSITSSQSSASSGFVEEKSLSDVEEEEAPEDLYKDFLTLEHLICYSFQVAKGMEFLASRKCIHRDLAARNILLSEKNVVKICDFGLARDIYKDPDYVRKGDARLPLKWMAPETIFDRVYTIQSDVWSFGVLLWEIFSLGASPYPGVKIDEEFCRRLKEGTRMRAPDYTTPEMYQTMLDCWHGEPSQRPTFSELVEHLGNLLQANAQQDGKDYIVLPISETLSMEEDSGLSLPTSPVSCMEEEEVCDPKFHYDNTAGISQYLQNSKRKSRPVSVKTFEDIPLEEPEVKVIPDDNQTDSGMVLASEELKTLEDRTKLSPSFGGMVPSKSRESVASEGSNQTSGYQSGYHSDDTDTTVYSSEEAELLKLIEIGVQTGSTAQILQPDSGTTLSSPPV

[3] = molecular target: Gamma-aminobutyric acid receptor subunit alpha-1 (Rattus norvegicus, UniProt P62813)
Chain of Gamma-aminobutyric acid receptor subunit alpha-1 (P62813 whole entry): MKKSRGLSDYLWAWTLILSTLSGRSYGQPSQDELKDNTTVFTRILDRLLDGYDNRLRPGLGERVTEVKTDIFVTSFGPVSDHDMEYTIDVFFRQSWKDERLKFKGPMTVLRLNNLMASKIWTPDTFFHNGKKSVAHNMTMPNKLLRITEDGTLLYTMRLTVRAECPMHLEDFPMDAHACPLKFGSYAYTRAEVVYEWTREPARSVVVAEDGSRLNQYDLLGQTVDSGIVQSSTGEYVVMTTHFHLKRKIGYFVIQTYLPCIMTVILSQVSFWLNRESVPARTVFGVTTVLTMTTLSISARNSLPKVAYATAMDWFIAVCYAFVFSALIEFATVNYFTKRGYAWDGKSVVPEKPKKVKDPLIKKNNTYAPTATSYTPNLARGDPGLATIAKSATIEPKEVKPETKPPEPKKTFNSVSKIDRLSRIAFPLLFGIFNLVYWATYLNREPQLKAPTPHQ

Adenosine receptor A3 = molecular target: T2, Adenosine receptor A3 (Homo sapiens, UniProt P0DMS8)
T2 sequence (P0DMS8 whole entry): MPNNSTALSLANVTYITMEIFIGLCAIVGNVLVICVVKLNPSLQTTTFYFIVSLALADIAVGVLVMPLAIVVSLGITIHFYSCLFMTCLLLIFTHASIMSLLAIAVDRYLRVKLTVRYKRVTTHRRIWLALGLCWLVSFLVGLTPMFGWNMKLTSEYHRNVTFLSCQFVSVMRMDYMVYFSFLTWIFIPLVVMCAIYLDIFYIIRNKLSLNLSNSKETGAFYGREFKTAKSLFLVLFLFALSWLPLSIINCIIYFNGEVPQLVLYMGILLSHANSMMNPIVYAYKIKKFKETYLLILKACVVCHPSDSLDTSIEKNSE

[4] = molecular target: T1, Muscarinic acetylcholine receptor M1; assay type: functional, cell-based; remark: listed apart in the source
[5] = molecular target: T3, Alpha-2A adrenergic receptor (Homo sapiens, UniProt P08913); assay type: functional, cell-based
T3 sequence (P08913 whole entry): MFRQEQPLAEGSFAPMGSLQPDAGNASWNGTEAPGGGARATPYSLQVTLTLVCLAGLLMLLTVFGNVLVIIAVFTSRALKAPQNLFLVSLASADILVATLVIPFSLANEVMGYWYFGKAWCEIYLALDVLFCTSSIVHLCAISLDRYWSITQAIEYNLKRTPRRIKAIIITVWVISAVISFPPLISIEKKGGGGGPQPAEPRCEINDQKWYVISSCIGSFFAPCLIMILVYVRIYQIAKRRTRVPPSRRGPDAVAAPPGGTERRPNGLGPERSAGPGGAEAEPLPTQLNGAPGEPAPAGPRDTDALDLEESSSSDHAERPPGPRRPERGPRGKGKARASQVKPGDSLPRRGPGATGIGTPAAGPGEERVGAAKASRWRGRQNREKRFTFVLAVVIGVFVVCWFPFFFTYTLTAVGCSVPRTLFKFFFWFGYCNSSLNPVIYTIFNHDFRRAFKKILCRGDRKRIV

[6] = molecular target: T3, Alpha-2A adrenergic receptor; assay type: functional, cell-based; remark: listed apart in the source
Also: assay procedure not described here.

Row | SMILES | AC50 [1] [µM] | AC50 [2] [µM] | AC50 [3] [µM] | AC50 (Adenosine receptor A3) [µM] | AC50 [4] [µM] | AC50 [5] [µM] | AC50 [6] [µM]
1 | CC(C1=C(CCN(C)C)Cc2ccccc21)c1ccccn1 (stereo not given) | 7.57 | > 30 | > 30 | > 30 | > 30 | – | –
2 | CC(=O)OC(C)OC(=O)C(C)c1ccc(-c2ccccc2)c(F)c1 (stereo not given) | > 30 | > 30 | > 30 | > 30 | > 30 | – | –
3 | C[C@H](N)C(=O)O [ALANINE] | > 30 | > 30 | > 30 | > 30 | > 30 | – | –
4 | O=C1c2c(O)cccc2Cc2cccc(O)c21 [ANTHRALIN] | > 30 | 6.14 | > 3 | > 3 | > 30 | – | –
5 | CNC(=O)C[C@@H](N)C(=O)N[C@@H](C(=O)N[C@@H]1C(=O)N2[C@@H]1SC(C)(C)[C@@H]2C(=O)O)c1ccc(O)cc1 [ASPOXICILLIN] | > 30 | – | > 30 | > 30 | > 30 | – | –
6 | COC(=O)C1=C(C)NC(C)=C(C(=O)O[C@H]2CCN(Cc3ccccc3)C2)[C@H]1c1cccc([N+](=O)[O-])c1 [BARNIDIPINE] | 4.07 | > 30 | > 30 | 4.65 | > 30 | – | –
7 | CCCCOc1ccc(CC(=O)NO)cc1 [BUFEXAMAC] | > 30 | > 30 | > 30 | > 30 | > 30 | – | –
8 | Cc1nnc(SCC2=C(C(=O)O)N3C(=O)[C@@H](NC(=O)Cn4cc(Cl)c(=O)c(Cl)c4)[C@H]3SC2)s1 [CEFAZEDONE] | > 30 | 10.1 | > 30 | > 30 | > 30 | – | –
9 | Nc1ncnc(Nc2ccc(Cl)cc2)n1 [CHLORAZANIL] | > 30 | 15 | > 30 | 7.95 | > 30 | – | –
10 | CCC[C@@H]1C[C@@H](C(=O)N[C@@H]([C@H]2O[C@H](SC)[C@H](OP(=O)(O)O)[C@@H](O)[C@H]2O)[C@H](C)Cl)N(C)C1 [CLINDAMYCIN PHOSPHATE] | > 30 | > 30 | > 30 | > 30 | > 30 | – | –
11 | C[C@@H]1C[C@H]2[C@@H]3C[C@H](F)C4=CC(=O)C=C[C@]4(C)[C@@]3(Cl)[C@@H](O)C[C@]2(C)[C@H]1C(=O)COC(=O)C(C)(C)C [CLOCORTOLONE PIVALATE] | > 30 | – | > 30 | 5.52 | > 30 | – | –
12 | O=P(O)(O)C(Cl)(Cl)P(=O)(O)O [CLODRONIC ACID] | > 30 | – | > 30 | > 30 | > 30 | – | –
13 | CCOC(=O)c1ccc(OC(=O)CCCCCNC(=N)N)cc1 [GABEXATE] | > 30 | > 30 | > 30 | > 30 | > 30 | – | –
14 | CCCCC/C=C\C/C=C\C/C=C\CCCCC(=O)O [GAMOLENIC ACID] | > 30 | > 30 | > 30 | > 30 | > 30 | – | –
15 | NC(=O)NCCC[C@H](N)C(=O)O [L-CITRULLINE] | > 30 | > 30 | > 30 | > 30 | > 30 | – | –
16 | CC(=O)O[C@H]1C[C@H](O[C@H]2[C@@H](O)C[C@H](O[C@H]3[C@@H](O)C[C@H](O[C@H]4CC[C@@]5(C)[C@H](CC[C@@H]6[C@@H]5C[C@@H](O)[C@]5(C)[C@@H](C7=CC(=O)OC7)CC[C@]65O)C4)O[C@@H]3C)O[C@@H]2C)O[C@H](C)[C@H]1O[C@@H]1O[C@H](CO)[C@@H](O)[C@H](O)[C@H]1O [LANATOSIDE C] | > 30 | > 30 | > 30 | > 30 | > 30 | – | –
17 | Nc1nc(N)nc(Nc2ccc([As]3SCC(CO)S3)cc2)n1 (stereo not given) [MELARSOPROL] | 22.5 | – | 21 | 1.92 | > 30 | – | –
18 | CO[C@H]1[C@@H](O)C[C@H](O[C@H]2[C@@H](O)C[C@H](O[C@H]3[C@@H](O)C[C@H](O[C@H]4CC[C@@]5(C)[C@H](CC[C@@H]6[C@@H]5C[C@@H](O)[C@]5(C)[C@@H](C7=CC(=O)OC7)CC[C@]65O)C4)O[C@@H]3C)O[C@@H]2C)O[C@@H]1C [METILDIGOXIN] | > 30 | > 30 | > 30 | > 30 | > 30 | – | –
19 | CC1(C)S[C@@H]2[C@H](NC(=O)[C@H](NC(=O)N3CCN(S(C)(=O)=O)C3=O)c3ccccc3)C(=O)N2[C@H]1C(=O)O [MEZLOCILLIN] | > 30 | – | > 30 | > 30 | > 30 | – | –
20 | c1ccc2c(CC3=NCCN3)cccc2c1 [NAPHAZOLINE] | > 30 | > 30 | > 30 | > 30 | > 30 | 0.14 | 0.043
21 | C1CNCCN1 [PIPERAZINE] | > 30 | 23.3 | > 30 | > 30 | > 30 | – | –
22 | O=C(NC(Cc1cc(=O)[nH]c2ccccc12)C(=O)O)c1ccc(Cl)cc1 (stereo not given) [REBAMIPIDE] | > 30 | – | > 30 | > 30 | > 30 | – | –
23 | CCCCCCCCCCCCCCCCCC(=O)NCCCC[C@H](NC(=O)CC[C@@H](NC(=O)[C@H](C)NC(=O)[C@@H](C)O[C@H]1[C@H](O)[C@@H](CO)OC(O)[C@@H]1NC(C)=O)C(N)=O)C(=O)O (stereo not given in full) [ROMURTIDE] | 6.71 | > 30 | > 30 | 2.2 | > 30 | – | –
24 | CCOC(=O)[C@H](CCc1ccccc1)N[C@H]1CS[C@H](c2cccs2)CN(CC(=O)O)C1=O [TEMOCAPRIL] | > 30 | – | > 30 | > 30 | > 30 | – | –
